We go through 16 compounds from patent US8957085B2, “Carboxamide bioisosteres of opiates” (Rensselaer Polytechnic Institute, priority 2010, dated 2015).

One test addresses human δ opioid receptor (Homo sapiens, UniProt P41143). Put plainly: Opioid receptor binding assay, [3H]naltrindole (δ). Conditions: Ki [3H]Naltrindole (δ), membranes of CHO cells expressing human δ opioid receptor; 0.2 nM [3H]naltrindole; mean ± S.E.
The next test deals with human κ opioid receptor (Homo sapiens, UniProt P41145). Put plainly: biochemical.
Another test concerns the target human μ opioid receptor (Homo sapiens, UniProt P35372). Put plainly: Opioid receptor binding assay, [3H]DAMGO (μ).
For test [1] the following is noted: 1 mg/kg ip in mice; cited from earlier work.

Chain of human δ opioid receptor (P41143 whole entry): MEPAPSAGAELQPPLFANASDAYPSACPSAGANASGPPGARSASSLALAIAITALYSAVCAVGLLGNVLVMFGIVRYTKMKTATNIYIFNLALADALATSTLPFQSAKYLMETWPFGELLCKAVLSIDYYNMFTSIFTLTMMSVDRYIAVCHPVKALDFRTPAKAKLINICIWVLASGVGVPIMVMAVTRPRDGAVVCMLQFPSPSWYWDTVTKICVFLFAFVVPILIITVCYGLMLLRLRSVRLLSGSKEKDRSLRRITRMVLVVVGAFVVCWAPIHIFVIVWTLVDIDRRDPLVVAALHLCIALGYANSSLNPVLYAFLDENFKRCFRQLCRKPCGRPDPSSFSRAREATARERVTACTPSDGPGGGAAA
Chain of human μ opioid receptor (P35372 whole entry): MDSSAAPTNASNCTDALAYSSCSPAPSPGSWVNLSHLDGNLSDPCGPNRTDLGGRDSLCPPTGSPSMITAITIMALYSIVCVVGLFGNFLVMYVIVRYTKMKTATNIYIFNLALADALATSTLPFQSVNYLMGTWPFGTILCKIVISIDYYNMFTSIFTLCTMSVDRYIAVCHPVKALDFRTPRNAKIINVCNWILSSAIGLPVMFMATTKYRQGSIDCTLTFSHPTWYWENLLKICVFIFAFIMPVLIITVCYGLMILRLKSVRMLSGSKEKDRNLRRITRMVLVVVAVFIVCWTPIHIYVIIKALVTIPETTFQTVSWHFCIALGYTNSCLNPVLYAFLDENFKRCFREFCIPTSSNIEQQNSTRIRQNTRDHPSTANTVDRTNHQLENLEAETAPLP
Chain of human κ opioid receptor (P41145 whole entry): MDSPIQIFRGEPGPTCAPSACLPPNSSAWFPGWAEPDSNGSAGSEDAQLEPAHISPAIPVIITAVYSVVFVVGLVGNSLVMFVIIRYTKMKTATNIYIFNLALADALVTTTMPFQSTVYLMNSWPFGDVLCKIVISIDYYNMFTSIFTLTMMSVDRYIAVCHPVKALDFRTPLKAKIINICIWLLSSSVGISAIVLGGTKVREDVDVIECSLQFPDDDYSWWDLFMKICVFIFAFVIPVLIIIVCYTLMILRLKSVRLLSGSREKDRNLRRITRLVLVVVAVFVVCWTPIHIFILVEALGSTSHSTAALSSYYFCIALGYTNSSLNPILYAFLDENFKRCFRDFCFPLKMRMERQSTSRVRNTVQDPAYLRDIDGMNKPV

As to `CC1C2Cc3ccc(C(=O)NCCc4ccc(-c5ccc(O)cc5)cc4)cc3C1(C)CCN2CC1CC1` (racemic) [Compound 1], the inhibition constant (Ki) (commonly a measure of affinity in units of concentration, obtained from inhibition or displacement) was 0.81 ± 0.12 nM at human δ opioid receptor and 0.49 ± 0.011 nM at human κ opioid receptor.

As for `COc1ccc(-c2ccc(CCNC(=O)c3ccc4c(c3)C3(C)CCN(CC5CC5)C(C4)C3C)cc2)cc1C` (racemic) [Compound 2], the Ki on human δ opioid receptor was determined as 1.5 ± 0.14 nM.

For the compound `COc1ccc(-c2ccc(CCNC(=O)c3ccc4c(c3)C3(C)CCN(CC5CC5)C(C4)C3C)cc2)c(C)c1` (racemic) [Compound 3], the Ki at human δ opioid receptor was found to be 1.1 ± 0.18 nM; on human μ opioid receptor it was 0.23 ± 0.0056 nM; at human κ opioid receptor it was 1.3 ± 0.11 nM.

On to `CCOc1ccc(-c2ccc(CCNC(=O)c3ccc4c(c3)C3(C)CCN(CC5CC5)C(C4)C3C)cc2)cc1` (racemic) [Compound 4], for which the Ki at human δ opioid receptor worked out at 3.4 ± 0.039 nM; at human κ opioid receptor, 3.3 ± 0.32 nM.

`CC(C)Oc1ccc(-c2ccc(CCNC(=O)c3ccc4c(c3)C3(C)CCN(CC5CC5)C(C4)C3C)cc2)cc1` (racemic) [Compound 5]: the inhibitory constant (Ki) at human δ opioid receptor turned out to be 1.9 ± 0.21 nM; on human μ opioid receptor, 0.23 ± 0.041 nM.

Regarding `CC(C)Oc1cccc(-c2ccc(CCNC(=O)c3ccc4c(c3)C3(C)CCN(CC5CC5)C(C4)C3C)cc2)c1` (racemic) [Compound 6], the figures for the inhibition constant Ki at human δ opioid receptor, at human μ opioid receptor and on human κ opioid receptor were 3.9 ± 1.4 nM, 0.43 ± 0.041 nM and 2.4 ± 0.25 nM, respectively.

Turning to `CC(C)Oc1ccccc1-c1ccc(CCNC(=O)c2ccc3c(c2)C2(C)CCN(CC4CC4)C(C3)C2C)cc1` (racemic) [Compound 7], the Ki at human δ opioid receptor came out at 0.55 ± 0.025 nM; on human κ opioid receptor, 1.8 ± 0.17 nM.

As for `CC1C2Cc3ccc(C(=O)NCCc4ccc(-c5ccc6c(c5)OCO6)cc4)cc3C1(C)CCN2CC1CC1` (racemic) [Compound 8], the inhibition constant (Ki) at human δ opioid receptor was determined as 1 ± 0.12 nM; at human κ opioid receptor, 0.73 ± 0.049 nM.

For the compound `CC1C2Cc3ccc(C(=O)NCCc4ccc(-c5ccc(C#N)cc5)cc4)cc3C1(C)CCN2CC1CC1` (racemic) [Compound 9], the Ki was determined as 3 ± 0.11 nM on human δ opioid receptor, 0.017 ± 0.00075 nM on human μ opioid receptor and 1 ± 0.095 nM at human κ opioid receptor.

Regarding `CC1C2Cc3ccc(C(=O)NCCc4ccc(-c5ccc(C=O)cc5)cc4)cc3C1(C)CCN2CC1CC1` (racemic) [Compound 10], the Ki on human δ opioid receptor came out at 2.5 ± 0.12 nM; at human μ opioid receptor, 0.002 ± 0.00029 nM; at human κ opioid receptor, 1.8 ± 0.038 nM.

With `C[C@H]1C2Cc3ccc(C(=O)NCCc4ccc(-c5ccc(C(N)=O)cc5)cc4)cc3[C@@]1(C)CCN2CC1CC1` (racemic) [Compound 34], the inhibition constant Ki amounted to 1 ± 0.018 nM at human δ opioid receptor, 0.0052 ± 0.00055 nM at human μ opioid receptor and 0.91 ± 0.066 nM at human κ opioid receptor.

As to `C[C@H]1C2Cc3ccc(C(=O)NCCc4ccc(-c5ccc(C(=O)O)cc5)cc4)cc3[C@@]1(C)CCN2CC1CC1` (racemic) [Compound 35], the inhibition constant (Ki) was determined as 68 ± 9 nM at human δ opioid receptor, 2.3 ± 0.16 nM at human μ opioid receptor and 55 ± 4.1 nM on human κ opioid receptor.

As for `COC(=O)c1ccc(-c2ccc(CCNC(=O)c3ccc4c(c3)[C@@]3(C)CCN(CC5CC5)C(C4)[C@@H]3C)cc2)cc1` (racemic) [Compound 36], the inhibition constant (Ki) on human δ opioid receptor came out at 1.5 ± 0.062 nM; on human μ opioid receptor it was 0.0091 ± 0.00071 nM; on human κ opioid receptor it was 1.1 ± 0.13 nM.

In the case of `CC1C2Cc3ccc(C(=O)NCCc4ccc(-c5ccc(O)cc5)cc4)cc3C1(C)CCN2CC1CC1` (single isomer, unassigned) [Compound 1A], the values for the inhibitory constant (Ki) on human δ opioid receptor and on human κ opioid receptor were 0.78 ± 0.05 nM and 0.36 ± 0.018 nM, respectively.

`C[C@H]1C2Cc3ccc(C(N)=O)cc3[C@@]1(C)CCN2CC1CC1` [Compound 8-CAC, 8-carboxamidocyclazocine]: the “duration of action (antinociception)” value in test [1] was 15 h.

Consider `C[C@H]1[C@H]2Cc3ccc(O)cc3[C@]1(C)CCN2CC1CC1` [cyclazocine], for which, in test [1], the “duration of action (antinociception)” value is 2 h.
